Source: ChEMBL document CHEMBL1134183, “First tricyclic oximino derivatives as 5-HT3 ligands” (Bioorg Med Chem Lett, 2001)

Assays:
[1] = target: Serotonin 3 (5-HT3) receptor; experiment: Binding affinity towards 5-hydroxytryptamine 3 receptor; assay type: protein-complex assay
[2] = target: T1, Serotonin 3 (5-HT3) receptor (Homo sapiens) (UniProt P46098+A5X5Y0+O95264+Q70Z44+Q8WXA8); experiment: Compound was tested for agonistic activity against 5-hydroxytryptamine 3 receptor on guinea pig colon at a concentration of 3 uM; assay type: functional, tissue-based; conditions: Cavia porcellus, target entry is the homologue from another species
[3] = target: T1, Serotonin 3 (5-HT3) receptor (Homo sapiens); experiment: Compound was tested for agonistic activity against 5-hydroxytryptamine 3 receptor on guinea pig colon at a concentration of 10 uM; assay type: functional, tissue-based; conditions: Cavia porcellus, target entry is the homologue from another species
[4] = target: T1, Serotonin 3 (5-HT3) receptor (Homo sapiens); experiment: Compound was tested for agonistic activity against 5-hydroxytryptamine 3 receptor on guinea pig colon at a concentration of 10 uM in the presence of 30 uM MDL 72222; assay type: functional, tissue-based; conditions: Cavia porcellus, target entry is the homologue from another species
[5] = target: T1, Serotonin 3 (5-HT3) receptor (Homo sapiens); experiment: Compound was tested for agonistic activity against 5-hydroxytryptamine 3 receptor on guinea pig colon at a concentration of 1 uM; assay type: functional, tissue-based; conditions: Cavia porcellus, target entry is the homologue from another species
[6] = target: T1, Serotonin 3 (5-HT3) receptor (Homo sapiens); experiment: Percent of control response to 5-HT3 antagonistic activity on guinea colon at a concentration 0.01 uM; assay type: functional, tissue-based; conditions: Cavia porcellus, target entry is the homologue from another species
[7] = target: 5-hydroxytryptamine receptor 7 (Homo sapiens) (UniProt P34969); experiment: Percentage of displacement at 5-hydroxytryptamine 7 receptor at 10e-8 M
[8] = target: Sodium-dependent noradrenaline transporter (Homo sapiens) (UniProt P23975); experiment: Compound was tested for binding affinity against noradrenergic uptake
[9] = target: T2, 5-hydroxytryptamine receptor 1A (Homo sapiens, UniProt P08908); experiment: Compound was tested for binding affinity against 5-hydroxytryptamine 1A receptor
T2 sequence (P08908 whole entry): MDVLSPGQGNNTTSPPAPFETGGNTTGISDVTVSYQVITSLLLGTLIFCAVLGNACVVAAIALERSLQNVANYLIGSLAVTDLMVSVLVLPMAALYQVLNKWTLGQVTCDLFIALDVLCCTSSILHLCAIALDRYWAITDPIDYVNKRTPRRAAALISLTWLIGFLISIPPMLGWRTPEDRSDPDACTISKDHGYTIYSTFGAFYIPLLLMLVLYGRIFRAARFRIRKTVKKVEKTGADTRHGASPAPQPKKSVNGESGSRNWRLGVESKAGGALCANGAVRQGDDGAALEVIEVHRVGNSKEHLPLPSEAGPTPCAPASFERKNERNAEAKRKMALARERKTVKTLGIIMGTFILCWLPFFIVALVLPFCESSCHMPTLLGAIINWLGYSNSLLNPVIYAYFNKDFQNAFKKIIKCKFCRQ

[10] = target: 5-hydroxytryptamine receptor 4 (Homo sapiens, UniProt Q13639); experiment: Compound was tested for agonistic activity against 5-hydroxytryptamine 4 receptor on guinea colon at a concentration 0.1 uM; assay type: functional, tissue-based
[11] = target: Sodium-dependent dopamine transporter (Homo sapiens) (UniProt Q01959); experiment: Compound was tested for binding affinity against dopaminergic uptake
[12] = target: Serotonin 3 (5-HT3) receptor; experiment: Compound was tested for agonistic activity against 5-HT uptake; assay type: functional
[13] = Compound was tested for binding affinity against 5-HT1 receptor
[14] = target: T1, Serotonin 3 (5-HT3) receptor (Homo sapiens); experiment: Percent of control response to 5-HT3 agonistic activity on guinea colon at a concentration 1 uM in the presence of 30 uM MDL 72222; assay type: functional, tissue-based; conditions: Cavia porcellus, target entry is the homologue from another species
[15] = target: 5-hydroxytryptamine receptor 1D (Homo sapiens, UniProt P28221); experiment: Compound was tested for binding affinity against 5-hydroxytryptamine 1D receptor
[16] = target: T3, 5-hydroxytryptamine receptor 2C (Homo sapiens, UniProt P28335); experiment: Compound was tested for binding affinity against 5-hydroxytryptamine 2C receptor
T3 sequence (P28335 whole entry): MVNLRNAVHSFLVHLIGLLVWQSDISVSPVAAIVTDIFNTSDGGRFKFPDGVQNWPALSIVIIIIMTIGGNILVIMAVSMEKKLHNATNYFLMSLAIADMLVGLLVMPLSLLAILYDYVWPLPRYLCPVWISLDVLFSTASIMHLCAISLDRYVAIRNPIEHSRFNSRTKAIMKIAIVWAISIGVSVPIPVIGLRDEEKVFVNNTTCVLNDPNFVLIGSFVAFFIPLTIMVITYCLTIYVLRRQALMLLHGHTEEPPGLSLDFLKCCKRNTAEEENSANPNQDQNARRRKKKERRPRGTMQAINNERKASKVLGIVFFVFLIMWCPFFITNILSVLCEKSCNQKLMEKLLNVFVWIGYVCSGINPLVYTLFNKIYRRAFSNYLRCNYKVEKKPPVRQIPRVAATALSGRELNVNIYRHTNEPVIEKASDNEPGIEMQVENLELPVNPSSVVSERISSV

[17] = target: Serotonin 2 (5-HT2) receptor (Homo sapiens, UniProt P41595+P28223+P28335); experiment: Compound was tested for binding affinity against 5-hydroxytryptamine 2 receptor; assay type: protein assay
[18] = target: T1, Serotonin 3 (5-HT3) receptor (Homo sapiens); experiment: Percent of control response to 5-HT3 agonistic activity on guinea colon at a concentration 0.1 uM; assay type: functional, tissue-based; conditions: Cavia porcellus, target entry is the homologue from another species
[19] = target: 5-hydroxytryptamine receptor 6 (Homo sapiens) (UniProt P50406); experiment: Percentage of displacement at 5-hydroxytryptamine 6 receptor at 10e-8 M
[20] = target: T1, Serotonin 3 (5-HT3) receptor (Homo sapiens); experiment: Percent of control response to 5-HT3 agonistic activity on guinea colon at a concentration 1 uM; assay type: functional, tissue-based; conditions: Cavia porcellus, target entry is the homologue from another species
[21] = target: Serotonin 3 (5-HT3) receptor; experiment: Compound was tested for binding affinity towards 5-hydroxytryptamine 3 receptor; assay type: protein-complex assay
[22] = target: T1, Serotonin 3 (5-HT3) receptor (Homo sapiens); experiment: Percent of control response to 5-HT3 agonistic activity on guinea colon at a concentration 0.01 uM; assay type: functional, tissue-based; conditions: Cavia porcellus, target entry is the homologue from another species
[23] = target: T1, Serotonin 3 (5-HT3) receptor (Homo sapiens); experiment: Percent of control response to 5-HT3 antagonistic activity on guinea colon at a concentration 1 uM; assay type: functional, tissue-based; conditions: Cavia porcellus, target entry is the homologue from another species
[24] = target: T1, Serotonin 3 (5-HT3) receptor (Homo sapiens); experiment: Compound was tested for agonistic activity against 5-hydroxytryptamine 3 receptor on guinea colon at a concentration 0.01 uM; assay type: functional, tissue-based; conditions: Cavia porcellus, target entry is the homologue from another species
[25] = target: 5-hydroxytryptamine receptor 1B (Homo sapiens, UniProt P28222); experiment: Compound was tested for binding affinity against 5-hydroxytryptamine 1B receptor
Chain of 5-hydroxytryptamine receptor 1B (P28222 whole entry): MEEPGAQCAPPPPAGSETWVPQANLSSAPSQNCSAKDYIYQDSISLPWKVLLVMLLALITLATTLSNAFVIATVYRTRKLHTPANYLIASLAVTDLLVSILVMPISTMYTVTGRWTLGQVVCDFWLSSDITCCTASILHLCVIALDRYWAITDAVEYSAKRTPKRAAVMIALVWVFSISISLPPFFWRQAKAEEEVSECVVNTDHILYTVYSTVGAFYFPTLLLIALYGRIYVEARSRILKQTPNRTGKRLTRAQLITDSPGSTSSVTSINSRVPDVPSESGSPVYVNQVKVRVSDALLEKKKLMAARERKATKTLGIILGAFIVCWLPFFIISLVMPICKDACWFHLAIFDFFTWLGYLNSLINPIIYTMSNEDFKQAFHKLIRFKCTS

Chain of 5-hydroxytryptamine receptor 4 (Q13639 whole entry): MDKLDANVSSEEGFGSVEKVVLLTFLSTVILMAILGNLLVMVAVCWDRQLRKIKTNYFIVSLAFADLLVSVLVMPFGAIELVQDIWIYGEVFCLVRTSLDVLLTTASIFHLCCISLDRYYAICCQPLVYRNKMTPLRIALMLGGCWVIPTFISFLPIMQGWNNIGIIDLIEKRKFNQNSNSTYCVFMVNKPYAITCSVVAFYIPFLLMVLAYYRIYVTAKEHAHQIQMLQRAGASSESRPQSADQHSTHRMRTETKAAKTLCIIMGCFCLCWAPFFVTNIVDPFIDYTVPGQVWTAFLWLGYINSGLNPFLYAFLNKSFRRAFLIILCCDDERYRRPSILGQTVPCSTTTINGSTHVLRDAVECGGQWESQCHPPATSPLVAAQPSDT
Chain of 5-hydroxytryptamine receptor 1D (P28221 whole entry): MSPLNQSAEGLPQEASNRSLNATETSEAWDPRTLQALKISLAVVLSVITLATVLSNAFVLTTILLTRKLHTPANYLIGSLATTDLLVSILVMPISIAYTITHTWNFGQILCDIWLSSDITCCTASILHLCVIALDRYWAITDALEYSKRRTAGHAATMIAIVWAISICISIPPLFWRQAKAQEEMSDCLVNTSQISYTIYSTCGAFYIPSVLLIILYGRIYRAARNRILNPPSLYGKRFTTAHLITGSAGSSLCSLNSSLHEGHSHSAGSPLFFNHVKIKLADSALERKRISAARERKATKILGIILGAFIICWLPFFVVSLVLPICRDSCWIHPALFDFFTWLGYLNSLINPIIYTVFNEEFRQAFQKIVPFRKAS
Chain of Sodium-dependent noradrenaline transporter (Homo sapiens) (P23975 whole entry): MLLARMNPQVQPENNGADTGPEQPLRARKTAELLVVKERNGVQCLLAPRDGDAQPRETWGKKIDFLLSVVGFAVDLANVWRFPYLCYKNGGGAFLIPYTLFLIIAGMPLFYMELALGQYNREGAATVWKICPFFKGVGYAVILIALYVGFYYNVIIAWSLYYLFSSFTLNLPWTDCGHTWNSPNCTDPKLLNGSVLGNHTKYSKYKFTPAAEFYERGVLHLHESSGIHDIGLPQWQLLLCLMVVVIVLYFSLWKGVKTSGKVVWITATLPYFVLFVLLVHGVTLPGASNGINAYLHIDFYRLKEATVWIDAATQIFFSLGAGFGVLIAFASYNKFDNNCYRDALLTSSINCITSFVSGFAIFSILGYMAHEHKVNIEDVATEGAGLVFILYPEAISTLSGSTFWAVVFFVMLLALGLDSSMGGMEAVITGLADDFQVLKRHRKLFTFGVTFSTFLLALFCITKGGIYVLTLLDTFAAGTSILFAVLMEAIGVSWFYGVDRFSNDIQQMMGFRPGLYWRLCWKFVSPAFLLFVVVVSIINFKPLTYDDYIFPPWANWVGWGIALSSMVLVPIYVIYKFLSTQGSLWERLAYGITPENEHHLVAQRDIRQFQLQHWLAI
Chain of 5-hydroxytryptamine receptor 7 (Homo sapiens) (P34969 whole entry): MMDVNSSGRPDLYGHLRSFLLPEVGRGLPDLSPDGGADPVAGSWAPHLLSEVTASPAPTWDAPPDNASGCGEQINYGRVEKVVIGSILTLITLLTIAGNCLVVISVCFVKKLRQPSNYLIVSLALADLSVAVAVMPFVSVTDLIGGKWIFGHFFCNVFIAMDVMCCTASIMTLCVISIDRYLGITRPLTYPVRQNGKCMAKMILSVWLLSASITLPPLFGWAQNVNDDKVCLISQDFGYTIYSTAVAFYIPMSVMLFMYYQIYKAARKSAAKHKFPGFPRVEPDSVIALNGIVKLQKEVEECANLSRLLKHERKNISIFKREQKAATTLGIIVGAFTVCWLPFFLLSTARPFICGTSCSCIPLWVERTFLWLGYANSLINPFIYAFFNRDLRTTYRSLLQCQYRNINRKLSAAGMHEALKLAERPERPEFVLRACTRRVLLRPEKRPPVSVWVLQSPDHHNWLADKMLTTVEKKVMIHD
Chain of Sodium-dependent dopamine transporter (Homo sapiens) (Q01959 whole entry): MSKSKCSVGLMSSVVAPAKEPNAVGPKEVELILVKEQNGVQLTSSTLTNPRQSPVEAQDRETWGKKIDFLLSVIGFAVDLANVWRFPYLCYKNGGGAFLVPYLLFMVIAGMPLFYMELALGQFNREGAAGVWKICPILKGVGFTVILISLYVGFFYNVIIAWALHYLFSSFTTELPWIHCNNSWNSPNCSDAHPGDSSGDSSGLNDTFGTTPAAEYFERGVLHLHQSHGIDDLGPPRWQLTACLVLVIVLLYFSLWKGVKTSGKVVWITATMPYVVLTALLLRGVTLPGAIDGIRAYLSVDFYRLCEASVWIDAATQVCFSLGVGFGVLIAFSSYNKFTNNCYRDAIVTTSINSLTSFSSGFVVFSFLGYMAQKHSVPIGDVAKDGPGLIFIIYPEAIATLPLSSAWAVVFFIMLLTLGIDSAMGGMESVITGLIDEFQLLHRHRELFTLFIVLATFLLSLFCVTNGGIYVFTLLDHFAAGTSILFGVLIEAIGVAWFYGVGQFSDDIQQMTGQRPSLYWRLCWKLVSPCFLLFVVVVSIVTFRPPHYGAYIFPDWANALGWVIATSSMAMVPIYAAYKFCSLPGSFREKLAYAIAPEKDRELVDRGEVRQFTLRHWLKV
Chain of 5-hydroxytryptamine receptor 6 (Homo sapiens) (P50406 whole entry): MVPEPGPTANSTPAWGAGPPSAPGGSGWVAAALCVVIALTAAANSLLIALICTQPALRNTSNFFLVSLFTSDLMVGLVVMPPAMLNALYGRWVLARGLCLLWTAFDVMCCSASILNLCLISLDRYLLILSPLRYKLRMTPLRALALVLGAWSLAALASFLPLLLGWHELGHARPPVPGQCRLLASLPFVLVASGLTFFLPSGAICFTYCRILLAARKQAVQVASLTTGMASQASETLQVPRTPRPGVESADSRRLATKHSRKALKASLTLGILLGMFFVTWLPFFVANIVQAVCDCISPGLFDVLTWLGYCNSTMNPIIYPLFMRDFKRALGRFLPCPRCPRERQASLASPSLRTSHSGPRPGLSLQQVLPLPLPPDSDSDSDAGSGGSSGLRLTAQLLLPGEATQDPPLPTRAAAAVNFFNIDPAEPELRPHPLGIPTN

SMILES: CCN(CC)CCO/N=C1\c2sccc2-n2cccc21
- -Log IC50 [1]: 8.3

SMILES: CN(CCO/N=C1\c2sccc2-n2cccc21)Cc1ccccc1
- -Log IC50 [1]: 7.63

SMILES: CN(C)CCO/N=C1\c2ccccc2-n2cccc21
- -Log IC50 [1]: 8.24

SMILES: Cc1csc2c1-n1cccc1/C2=N/OCCN
- -Log IC50 [1]: 7.62

SMILES: NCCO/N=C1\c2ccccc2-n2cccc21
- -Log IC50 [1]: 6.66

SMILES: NCCc1c[nH]c2ccc(O)cc12
- Agonist activity [2]: 76
- Agonist activity [3]: 90
- Agonist activity [4]: 0
- Agonist activity [5]: 41

SMILES: CN1CCCC1CCO/N=C1\c2ccccc2-n2cccc21 (configuration not stated)
- -Log IC50 [1]: 7.85

SMILES: Cc1csc2c1-n1cccc1/C2=N/OCCCN(C)C
- -Log IC50 [1]: 8.6

SMILES: Cc1csc2c1-n1cccc1/C2=N/OCCC1CCCN1C (configuration not stated)
- -Log IC50 [1]: 8.7

SMILES: Cc1csc2c1-n1cccc1/C2=N/OCCCN(C)Cc1ccccc1
- -Log IC50 [1]: 7.47

SMILES: CN(C)CCO/N=C1\c2cc(Cl)ccc2-n2cccc21
- -Log IC50 [1]: 7.06

SMILES: Cc1ccc(-c2csc3c2-n2cccc2/C3=N/OCCN)cc1
- -Log IC50 [1]: 6.66

SMILES: Cc1csc2c1-n1cccc1/C2=N/OCCN1CCCC1
- -Log IC50 [1]: 8.7

SMILES: CN(C)CCO/N=C1\c2sccc2-n2cccc21
- -Log IC50 [1]: 8.46

SMILES: Cc1csc2c1-n1cccc1/C2=N/OCCNCc1ccccc1
- -Log IC50 [1]: 7.54

SMILES: c1ccc(CN2CCN(c3nc4sccc4n4cccc34)CC2)cc1
- -Log IC50 [1]: 8.34

SMILES: c1ccc(CNCCO/N=C2\c3ccccc3-n3cccc32)cc1
- -Log IC50 [1]: 6.54

SMILES: Cc1csc2c1-n1cccc1/C2=N/OCCN(C)Cc1ccccc1
- -Log IC50 [1]: 8.16

SMILES: Cc1csc2c1-n1cccc1/C2=N/OCCN(C)C
- Activity [6]: 64
- Displacement [7]: 0%
- Affinity [8]: 6%
- IC50 [9]: 5750 nM
- IC50 [10]: 871 nM
- Affinity [11]: 5.28%
- -Log IC50 [12]: 6.92
- -Log IC50 [13]: 5.66
- Activity [14]: 73
- IC50 [15]: 479 nM
- IC50 [16]: 2140 nM
- -Log IC50 [17]: 5.5
- Activity [18]: 37
- Displacement [19]: 0%
- Activity [20]: 0
- -Log IC50 [21]: 9.1
- Activity [22]: 0
- Activity [23]: 16
- Activity [24]: 0
- IC50 [25]: 2690 nM

SMILES: Cc1csc2c1-n1cccc1/C2=N/OCCN1CCCCC1
- -Log IC50 [1]: 8.4
